≈ marks a conversion by molar mass, not a printed value. One block for each molecule: values may come before it.
Legend:
Acinetobacter baumannii [1] = test: Antimicrobial activity against drug-resistant Acinetobacter baumannii producing PER1 beta-lactamase; format: functional
Acinetobacter baumannii [2] = test: Antimicrobial activity against Acinetobacter baumannii isolate producing IMP-4 beta-lactamase by agar dilution method; format: functional
Acinetobacter baumannii [3] = test: Antimicrobial activity against Acinetobacter baumannii isolate producing OXA-23 beta-lactamase by agar dilution method; format: functional
Acinetobacter baumannii [4] = test: Antimicrobial activity against Acinetobacter baumannii isolate producing metallo beta-lactamase by agar dilution method; format: functional
Acinetobacter baumannii [5] = test: Antimicrobial activity against carbapenem-resistant Acinetobacter baumannii expressing ISAba3; format: functional
Acinetobacter baumannii [6] = test: Antimicrobial activity against carbapenem-resistant Acinetobacter baumannii expressing ISAba1; format: functional
Homo sapiens = species: Homo sapiens; test: […] in carbapenem-resistant Acinetobacter baumannii infected human assessed as incidence of acute renal failure; format: toxicity, organism-based; details: in vivo
Acinetobacter baumannii [7] = test: Antimicrobial activity against Acinetobacter baumannii isolates by E-test; format: functional, organism-based

Molecule: CO/N=C(\C(=O)N[C@@H]1C(=O)N2C(C(=O)[O-])=C(C[N+]3(C)CCCC3)CS[C@H]12)c1csc(N)n1 [CEFEPIME]
MIC (Acinetobacter baumannii [1]): 32 µg/mL (≈ 66.6 µM)

Molecule: CC(C)(O/N=C(\C(=O)N[C@@H]1C(=O)N2C(C(=O)[O-])=C(C[n+]3ccccc3)CS[C@H]12)c1csc(N)n1)C(=O)O [CEFTAZIDIME]
MIC (Acinetobacter baumannii [1]): 256 µg/mL (≈ 468 µM)

MIC (Acinetobacter baumannii [2]): ≤ 4 µg/mL | MIC50 (Acinetobacter baumannii [2]): 0.5 µg/mL (≈ 1.19 µM) | MIC90 (Acinetobacter baumannii [2]): 16 µg/mL (≈ 38 µM) | MIC (Acinetobacter baumannii [3]): ≤ 4 µg/mL | MIC50 (Acinetobacter baumannii [3]): 0.5 µg/mL (≈ 1.19 µM) | MIC90 (Acinetobacter baumannii [3]): 16 µg/mL (≈ 38 µM) | MIC (Acinetobacter baumannii [4]): ≤ 4 µg/mL | MIC50 (Acinetobacter baumannii [4]): 0.5 µg/mL (≈ 1.19 µM) | MIC90 (Acinetobacter baumannii [4]): 16 µg/mL (≈ 38 µM)
Molecule: C[C@@H](O)[C@H]1C(=O)N2C(C(=O)O)=C(S[C@@H]3CN[C@H](CNS(N)(=O)=O)C3)[C@H](C)[C@H]12 [DORIPENEM]

Molecule: C[C@@H](O)[C@H]1C(=O)N2C(C(=O)O)=C(SCCNC=N)C[C@H]12 [IMIPENEM ANHYDROUS]
MIC (Acinetobacter baumannii [5]): ≥ 32 µg/mL | MIC (Acinetobacter baumannii [6]): ≥ 32 µg/mL

Molecule: C[C@@H](O)[C@H]1C(=O)N2C(C(=O)O)=C(S[C@@H]3CN[C@H](C(=O)N(C)C)C3)[C@H](C)[C@H]12 [MEROPENEM]
MIC (Acinetobacter baumannii [5]): ≥ 32 µg/mL | MIC (Acinetobacter baumannii [6]): ≥ 32 µg/mL

Molecule: COLISTIN [listing 1 of 2 here]
Activity (Homo sapiens): 14%

MIC (Acinetobacter baumannii [7]): 1 µg/mL
Molecule: COLISTIN [listing 2 of 2 here]

Source: ChEMBL document CHEMBL1138532, “Global challenge of multidrug-resistant Acinetobacter baumannii” (Antimicrob Agents Chemother, 2007)
